Source: US11185542B2, “Uses of dopamine beta-hydroxylase (DBH) inhibitors and serotonin receptor (5-HT) antagonists for the treatment of cancer” (Jiangsu Yahong Meditech Co., Ltd., priority 2016, dated 2021)

Experiments:
[1] = system: H22 murine hepatic cancer xenograft; assay: In vivo tumor growth, H22 murine hepatic cancer xenograft model (Example 4); set-up: species or system Mouse (Mus Musculus)
Method: (§1) Experiments using the murine H22, CT-26 and EMT-6 xenograft models were performed as described below.
(§2) Cells were cultured in RPMI-1640 medium supplemented with 10% FBS at 37° C. in an atmosphere of 5% CO2 in air. The tumor cells were routinely subcultured three times weekly. The cells that grew in an exponential growth phase were harvested and counted for tumor inoculation.
(§3) Mice (female, 6-8 weeks old) were inoculated subcutaneously at the right flank with the tumor cells (H22, EMT-6, or CT-26) in 0.1 mL PBS for tumor development. When the tumor volume reached approximately 60-80 mm^3, the mice were grouped randomly according to the animal body weight and tumor volume. Each group had 5-8 tumor-bearing mice.
(§4) The major endpoint was to determine if tumor growth could be delayed or mice could be cured. Tumor volume was measured three times weekly in two dimensions using a caliper, and the volume was expressed in mm^3 using the formula: V=0.5 a×b^2, where a and b are the long and short diameters of the tumor, respectively. The T/C value (in percent) was an indication of antitumor effectiveness, where T and C were the mean volume of the treated and control groups, respectively, on a given day. The T-C value was calculated according to TV. T-C was calculated with T as the median time (in days) required for the treatment group tumors to reach a predetermined size (e.g., TV as 1000 mm^3), and C as the median time (in days) for the control group tumors to reach the same size. The body weights were measured and recorded at the same time to observe the toxicity of the compounds. The animals were sacrificed at the termination of the study.
(§5) Summary statistics, including mean and the standard error of the mean (SEM), are provided for the tumor volume of each group at each time point. A two-way analysis of variance (ANOVA) was performed to compare body weight, tumor volume and tumor volume change. A one-way ANOVA was performed to compare tumor weight. All data were analyzed using GraphPad Prism 5. p<0.05 was considered to be statistically significant.
The anti-cancer activity of amperozide and nepicastat was evaluated in a H22 murine hepatic cancer xenograft model according to the experimental procedure described in Example 2. Anti-cancer activity was evaluated by measuring changes in tumor volume.

[2] = clinical dosage of amperozide 10 mg/day; read-out: plasma maximal concentration (Cmax); cited from earlier work
[3] = system: H22 murine hepatocarcinoma cell line; assay: In vitro cell proliferation assay (CellTiter-Glo) in H22 murine hepatocarcinoma cell line; assay type: cell-based; conditions: for anti-proliferative effect on H22 cell line: 1 μM and 0.1, in words; for viability at 0.1 µM / viability at 1 µM: H22, 72 h; for viability at 0.1 µM: read-out: Cell viability (%), 0.1 μM, 72 h, H22 cells; for viability at 1 µM: read-out: Cell viability (%), 1 μM, 72 h, H22 cells
Method: Methods: • (1) Cells were cultured in RPMI-1640 medium supplemented with 10% FBS, 100 U/ml penicillin, and […] streptomycin at 37° C. and 5% CO2 atmosphere. […] The anti-proliferative activity of amperozide, nepicastat, and paclitaxel was tested in the H22 murine hepatocarcinoma cell line according to the experimental procedure described in Example 1.

[4] = system: H22 murine hepatic cancer xenograft; assay: In vivo tumor growth, H22 murine hepatic cancer xenograft model, compared with anti-PD-1 mAb (Example 5); set-up: species or system Mouse (Mus Musculus); conditions: p.o.; for Tumor Volume (mm^3): QD x 20 days; for T/C (%) / TGI (%) tumor growth inhibition: QD
Method: as §1, §2, §3, §4, §5
The anti-cancer activity of nepicastat, etamicastat and anti-PD-1 monoclonal antibody (mAb) was evaluated in a H22 murine hepatic cancer xenograft model according to the experimental procedure described in Example 2.

CCNC(=O)N1CCN(CCCC(c2ccc(F)cc2)c2ccc(F)cc2)CC1 [Amperozide, amperozide]
T-C (days) (Reach 1000 mm^3) ([1]; Amperozide 2 mg/kg): 2 days | Tumor Volume ([1]; Amperozide 2 mg/kg, day 5): 80 ± 9 mm^3 | Tumor Volume ([1]; Amperozide 2 mg/kg, day 7): 166 ± 19 mm^3 | Tumor Volume ([1]; Amperozide 2 mg/kg, day 9): 355 ± 36 mm^3 | Tumor Volume ([1]; Amperozide 2 mg/kg, day 12): 576 ± 48 mm^3 | Tumor Volume ([1]; Amperozide 2 mg/kg, day 14): 806 ± 31 mm^3 | Tumor Volume ([1]; Amperozide 2 mg/kg, day 16): 1,219 ± 39 mm^3 | T/C (%) ([1]; Amperozide 2 mg/kg, day 19): 64.4% | TGI (%) tumor growth inhibition ([1]; Amperozide 2 mg/kg, day 19): 35.6% | Tumor Volume ([1]; Amperozide 2 mg/kg, day 19): 1,948 ± 158 mm^3 | Tumor Volume ([1]; Amperozide 2 mg/kg, day 19, listed as amperozide): 1948 mm^3 | T-C (days) (Reach 1000 mm^3) ([1]; Amperozide 6 mg/kg): 1 days | Tumor Volume ([1]; Amperozide 6 mg/kg, day 5): 80 ± 9 mm^3 | Tumor Volume ([1]; Amperozide 6 mg/kg, day 7): 174 ± 26 mm^3 | Tumor Volume ([1]; Amperozide 6 mg/kg, day 9): 367 ± 51 mm^3 | Tumor Volume ([1]; Amperozide 6 mg/kg, day 12): 602 ± 77 mm^3 | Tumor Volume ([1]; Amperozide 6 mg/kg, day 14): 1,004 ± 75 mm^3 | Tumor Volume ([1]; Amperozide 6 mg/kg, day 16): 1,625 ± 101 mm^3 | T/C (%) ([1]; Amperozide 6 mg/kg, day 19): 95.9% | TGI (%) tumor growth inhibition ([1]; Amperozide 6 mg/kg, day 19): 4.1% | Tumor Volume ([1]; Amperozide 6 mg/kg, day 19): 2,903 ± 315 mm^3 | Cmax [2]: ~100 nM | anti-proliferative effect on H22 cell line [3]: did not show any significant anti-proliferative effects | viability at 0.1 µM ([3]; Mus musculus): 100% | viability at 1 µM ([3]; Mus musculus): 95.1% | IC50 ([3]; Mus musculus, calculated from FIG. 1, read-out: IC50 in H22 murine hepatocarcinoma cells proliferation): 38.8 µM

NCCc1c[nH]c(=S)n1[C@H]1COc2c(F)cc(F)cc2C1 [Etamicastat, etamicastat]
Tumor Volume (mm^3) ([4]; Etamicastat 80 mg/kg, day 3): 56.40 ± 4.21 mm^3 | Tumor Volume (mm^3) ([4]; Etamicastat 80 mg/kg, day 6): 142.74 ± 14.75 mm^3 | Tumor Volume (mm^3) ([4]; Etamicastat 80 mg/kg, day 9): 325.41 ± 39.55 mm^3 | Tumor Volume (mm^3) ([4]; Etamicastat 80 mg/kg, day 13): 437.62 ± 48.77 mm^3 | Tumor Volume (mm^3) ([4]; Etamicastat 80 mg/kg, day 16): 645.29 ± 50.41 mm^3 | Tumor Volume (mm^3) ([4]; Etamicastat 80 mg/kg, day 19): 892.56 ± 131.83 mm^3 | Tumor Volume (mm^3) ([4]; Etamicastat 80 mg/kg, day 22): 1210.52 ± 197.23 mm^3 | Tumor Volume (mm^3) ([4]; Etamicastat 80 mg/kg, day 22, listed as etamicastat): 1,210.52 mm^3 | T/C (%) ([4]; Etamicastat 80 mg/kg, day 22): 70.42% | TGI (%) tumor growth inhibition ([4]; Etamicastat 80 mg/kg, day 22): 29.58% | Tumor Volume (mm^3) ([4]; Etamicastat 160 mg/kg, day 3): 56.42 ± 3.25 mm^3 | Tumor Volume (mm^3) ([4]; Etamicastat 160 mg/kg, day 6): 134.64 ± 14.18 mm^3 | Tumor Volume (mm^3) ([4]; Etamicastat 160 mg/kg, day 9): 270.71 ± 33.96 mm^3 | Tumor Volume (mm^3) ([4]; Etamicastat 160 mg/kg, day 13): 513.74 ± 103.91 mm^3 | Tumor Volume (mm^3) ([4]; Etamicastat 160 mg/kg, day 16): 825.29 ± 198.51 mm^3 | Tumor Volume (mm^3) ([4]; Etamicastat 160 mg/kg, day 19): 1167.51 ± 300.84 mm^3 | Tumor Volume (mm^3) ([4]; Etamicastat 160 mg/kg, day 22): 1309.12 ± 492.02 mm^3 | Tumor Volume (mm^3) ([4]; Etamicastat 160 mg/kg, day 22, listed as etamicastat): 1,309.12 mm^3 | T/C (%) ([4]; Etamicastat 160 mg/kg, day 22): 76.16% | TGI (%) tumor growth inhibition ([4]; Etamicastat 160 mg/kg, day 22): 23.84%

CC(=O)O[C@H]1C(=O)[C@@]2(C)[C@H]([C@H](OC(=O)c3ccccc3)[C@]3(O)C[C@H](OC(=O)[C@H](O)[C@@H](NC(=O)c4ccccc4)c4ccccc4)C(C)=C1C3(C)C)[C@]1(OC(C)=O)CO[C@@H]1C[C@@H]2O [Paclitaxel]
T-C (days) (Reach 1000 mm^3) ([1]; Paclitaxel 15 mg/kg): 2 days | Tumor Volume ([1]; Paclitaxel 15 mg/kg, day 5): 80 ± 9 mm^3 | Tumor Volume ([1]; Paclitaxel 15 mg/kg, day 7): 140 ± 17 mm^3 | Tumor Volume ([1]; Paclitaxel 15 mg/kg, day 9): 270 ± 48 mm^3 | Tumor Volume ([1]; Paclitaxel 15 mg/kg, day 12): 435 ± 60 mm^3 | Tumor Volume ([1]; Paclitaxel 15 mg/kg, day 14): 722 ± 105 mm^3 | Tumor Volume ([1]; Paclitaxel 15 mg/kg, day 16): 1,188 ± 206 mm^3 | T/C (%) ([1]; Paclitaxel 15 mg/kg, day 19): 65.5% | TGI (%) tumor growth inhibition ([1]; Paclitaxel 15 mg/kg, day 19): 34.5% | Tumor Volume ([1]; Paclitaxel 15 mg/kg, day 19): 1,982 ± 327 mm^3 | Tumor Volume ([1]; Paclitaxel 15 mg/kg, day 19, listed as paclitaxel): 1982 mm^3 | anti-proliferative effect on H22 cell line [3]: strong inhibition effect | viability at 0.1 µM ([3]; Mus musculus): 28.4% | viability at 1 µM ([3]; Mus musculus): 20.8%
